Test results: patent publication US20260209234A1, “SUBSTITUTED DIHYDROPYRROLO[3,4-D]PYRIMIDINE COMPOUNDS AND THEIR USE IN TREATING MEDICAL CONDITIONS” (Karuna Therapeutics, Inc., priority 2022, published 2026)

Columns and labels:
[1] = molecular target: T1, hM4 receptors (Homo sapiens, UniProt P08173); experiment: Human M4 PAM pERK assay; type: cell-based; details: CHO cells expressing hM4; EC20 of acetylcholine (10 nM final); TR-FRET
T1 construct: expressed in transfected cells; host or cells: CHO cells
T1 sequence (P08173 1-479): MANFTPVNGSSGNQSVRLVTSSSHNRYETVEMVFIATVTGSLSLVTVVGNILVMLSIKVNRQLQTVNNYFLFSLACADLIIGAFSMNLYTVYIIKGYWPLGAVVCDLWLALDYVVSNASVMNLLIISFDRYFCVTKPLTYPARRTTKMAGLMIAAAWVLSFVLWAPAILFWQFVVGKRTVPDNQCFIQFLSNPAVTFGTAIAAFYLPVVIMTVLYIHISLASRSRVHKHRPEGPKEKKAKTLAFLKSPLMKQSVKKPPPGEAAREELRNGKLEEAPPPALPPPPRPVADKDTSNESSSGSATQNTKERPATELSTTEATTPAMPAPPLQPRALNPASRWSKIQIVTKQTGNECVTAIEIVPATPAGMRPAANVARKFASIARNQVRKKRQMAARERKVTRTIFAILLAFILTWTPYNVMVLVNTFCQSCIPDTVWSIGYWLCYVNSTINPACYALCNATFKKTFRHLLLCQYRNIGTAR

[2] = molecular target: T2, rM4 receptors (Rattus norvegicus, UniProt P08485); experiment: Rat M4 PAM pERK assay; type: cell-based; details: CHO cells expressing rM4; EC20 of acetylcholine (10 nM final); TR-FRET
T2 construct: expressed in transfected cells; host or cells: CHO cells
T2 sequence (P08485 1-478): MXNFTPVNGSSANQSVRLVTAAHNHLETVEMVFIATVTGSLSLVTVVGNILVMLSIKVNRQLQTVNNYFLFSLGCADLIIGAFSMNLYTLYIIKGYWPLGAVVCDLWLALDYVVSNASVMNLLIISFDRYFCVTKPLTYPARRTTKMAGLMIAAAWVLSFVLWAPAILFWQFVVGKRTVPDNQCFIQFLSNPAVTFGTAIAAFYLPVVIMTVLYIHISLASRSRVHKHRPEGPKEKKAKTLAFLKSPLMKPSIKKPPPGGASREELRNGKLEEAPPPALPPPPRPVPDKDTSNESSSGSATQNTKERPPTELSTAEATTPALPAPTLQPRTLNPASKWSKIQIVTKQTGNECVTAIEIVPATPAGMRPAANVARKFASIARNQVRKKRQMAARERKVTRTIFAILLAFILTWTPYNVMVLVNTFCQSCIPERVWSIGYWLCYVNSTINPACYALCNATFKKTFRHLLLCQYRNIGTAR

[3] = molecular target: T3, human M4 receptor (Homo sapiens, UniProt P08173); experiment: M4 GTPγS PAM assay; type: biochemical; details: membranes of CHO-K1 cells stably expressing human M4; EC20 acetylcholine 40 nM; 35S-GTP
T3 construct: expressed in transfected cells
T3 sequence (P08173 1-479): T1 sequence (P08173 1-479)
Procedure, shortened: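 CHO-K1 membranes stably expressing human M4, preincubated with compound and 0.1 μM GDP (final) in 20 mM HEPES, 10 mM MgCl2, 100 mM NaCl, pH 7.4, then EC20 acetylcholine (40 nM final). 35S-GTPγS binding 1 h at room temperature, filtration and scintillation counting.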

SMILES	EC50 [1] [nM]	EC50 [2] [nM]	EC50 [3] [nM]
COc1nc(C)c2c(n1)CN(C(=O)CC1CN(c3ccnc(C(F)(F)F)c3)C1)C2 [Compound I-75, 1-(2-Methoxy-4-methyl-5,7-dihydro-6H-pyrrolo[3,4-d]pyrimidin-6-yl)-2-(1-(2-(trifluoromethyl)pyridin-4-yl)azetidin-3-yl)ethan-1-one]	100 to 500	≥ 2000	100 to 500
COc1nc(C)nc2c1C(C)N(C(=O)CC1CN(c3cccc(C#N)c3)C1)C2 (single isomer, unassigned) [Compound I-55, 3-(3-(2-(4-Methoxy-2,5-dimethyl-5,7-dihydro-6H-pyrrolo[3,4-d]pyrimidin-6-yl)-2-oxoethyl)azetidin-1-yl)benzonitrile]	500 to 2000	500 to 2000	≥ 2000
COc1nc(C)nc2c1C(C)N(C(=O)CC1CN(c3cccc(C#N)c3)C1)C2 (single isomer, unassigned) [Compound I-54, 3-(3-(2-(4-Methoxy-2,5-dimethyl-5,7-dihydro-6H-pyrrolo[3,4-d]pyrimidin-6-yl)-2-oxoethyl)azetidin-1-yl)benzonitrile]	≥ 2000	≥ 2000	≥ 2000

The remaining lines, values ahead:

EC50 [1] [nM]	EC50 [2] [nM]	EC50 [3] [nM]	SMILES
500 to 2000	≥ 2000	500 to 2000	COc1nc(C#N)nc2c1CN(C(=O)CC1CN(c3ccnc(C(F)(F)F)c3)C1)C2C (single isomer, unassigned) [Compound I-34, 4-Methoxy-7-methyl-6-(2-(1-(2-(trifluoromethyl)pyridin-4-yl)azetidin-3-yl)acetyl)-6,7-dihydro-5H-pyrrolo[3,4-d]pyrimidine-2-carbonitrile]
≥ 2000	≥ 2000	≥ 2000	COc1nc(C#N)nc2c1C(C)N(C(=O)CC1CN(c3ccc(C4CC4)c(F)c3)C1)C2 (single isomer, unassigned) [Compound I-21, 6-(2-(1-(4-Cyclopropyl-3-fluorophenyl)azetidin-3-yl)acetyl)-4-methoxy-5-methyl-6,7-dihydro-5H-pyrrolo[3,4-d]pyrimidine-2-carbonitrile]
≥ 2000	≥ 2000	≥ 2000	Cc1nc2c(c(OCC3CC3)n1)CN(C(=O)CC1CN(c3ccnc(C(F)(F)F)c3)C1)C2 [Compound I-50, 1-(4-(Cyclopropylmethoxy)-2-methyl-5,7-dihydro-6H-pyrrolo[3,4-d]pyrimidin-6-yl)-2-(1-(2-(trifluoromethyl)pyridin-4-yl)azetidin-3-yl)ethan-1-one]
≥ 2000	≥ 2000	≥ 2000	COc1nc2c(c(OC(F)F)n1)CN(C(=O)CC1CN(c3cccnc3)C1)C2 [Compound I-76, 1-(4-(Difluoromethoxy)-2-methoxy-5,7-dihydro-6H-pyrrolo[3,4-d]pyrimidin-6-yl)-2-(1-(pyridin-3-yl)azetidin-3-yl)ethan-1-one]
